This note sets out measurements from PubChem BioAssay (NCI).

Some test systems named below: EKVX NSCLC; OVCAR-5 ovarian; DMS 114 small cell lung; OVCAR-4 ovarian; UACC-257 melanoma; A498 renal; M14 melanoma; KM20L2 colon; SR leukemia; M19-MEL melanoma.
What all share (test): DTP human tumour cell line panel, 48 h

Where “and” joins values, the source holds several entries; their conditions need not be identical. Identical values can stand only once.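 48-hour exposure; five concentrations; linearly interpolated endpoints. Abbreviation: GI50, concentration required for 50% inhibition of growth. At the TGI there is no net growth.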

The term TGI denotes the concentration giving total growth inhibition. As to `O=C1NC2(CCCCC2)C2CCCCCC12` (stereo not given), the TGI in the assay with EKVX NSCLC, with OVCAR-5 ovarian, in the assay with DMS 114 small cell lung, in the assay on OVCAR-4 ovarian, with UACC-257 melanoma and in the assay on A498 renal was above 100 µM each time. The TGI with M14 melanoma, in the assay with KM20L2 colon and with SR leukemia was above 100 µM throughout.

Take `c1ccc2c(c1)nc(NC1CCCC1)c1[nH]c(C3CCCC3)nc12`: the TGI in the assay on EKVX NSCLC was above 100 µM; with OVCAR-5 ovarian it was 61.1 µM; in the assay with DMS 114 small cell lung, 35.4 µM; in the assay on OVCAR-4 ovarian, 30.1 µM; in the assay with M19-MEL melanoma, 27.7 µM; with UACC-257 melanoma, 11.1 µM. The TGI with A498 renal came out at 43.1 µM; in the assay on M14 melanoma, 10 µM; in the assay with KM20L2 colon, 20.8 µM; in the assay on SR leukemia, 63.5 µM.

As a reminder, the GI50 is the concentration that inhibits growth by half. As for `NC(=O)C#CC(N)=O`, the GI50 in the assay on EKVX NSCLC is 16.1 µM and 18.1 µM and > 100 µM; in the assay on OVCAR-5 ovarian it was 20.9 µM and > 54 µM; in the assay with DMS 114 small cell lung, 24.4 µM and 38.3 µM and > 100 µM; in the assay with OVCAR-4 ovarian, 30.7 µM and 21.6 µM and > 100 µM; with M19-MEL melanoma it was 11.8 µM and 10.1 µM and 28.6 µM; in the assay with UACC-257 melanoma it was 4.46 µM and 13.6 µM. For the same compound, the GI50 in the assay on A498 renal is 71 µM. The TGI in the assay with EKVX NSCLC is 29.7 µM and 35 µM and > 100 µM; in the assay with OVCAR-5 ovarian it was 38.4 µM and 47.9 µM and > 90.8 µM; with DMS 114 small cell lung it was 71.5 µM and 125 µM and > 100 µM; with OVCAR-4 ovarian, 87.5 µM and 55 µM and > 100 µM; in the assay with M19-MEL melanoma, 24.8 µM and 22.4 µM and > 65.8 µM; in the assay with UACC-257 melanoma, 14.2 µM and 19.5 µM. In addition, the TGI with A498 renal is 197 µM and 154 µM and > 100 µM; in the assay on M14 melanoma, 37.5 µM; in the assay on SR leukemia, 36.3 µM.

With `CN(C)CCSC(=Nc1ccccc1)N1CCCCC1`, the TGI with OVCAR-5 ovarian was 35.3 µM; with DMS 114 small cell lung, 26.5 µM; in the assay with OVCAR-4 ovarian it was 40.2 µM; in the assay with M19-MEL melanoma, 31.2 µM; with UACC-257 melanoma it was 29.6 µM; in the assay with M14 melanoma, 29.9 µM. Moreover, the values for the TGI in the assay on KM20L2 colon and in the assay with SR leukemia were 31.7 µM and 97.3 µM, respectively.

As to `Cc1cccc(NC(=O)C(=O)C(C(=O)c2ccccc2F)C2OC(=O)c3ccccc32)c1Cl` (stereo not given), the TGI in the assay on EKVX NSCLC is above 100 µM; in the assay on OVCAR-5 ovarian it was above 100 µM; in the assay on DMS 114 small cell lung, 53 µM; in the assay with OVCAR-4 ovarian, above 100 µM; with M19-MEL melanoma, above 100 µM; with UACC-257 melanoma it was above 100 µM. For the same compound, the TGI with A498 renal was above 100 µM; with M14 melanoma, above 100 µM; in the assay on KM20L2 colon, 88.5 µM; with SR leukemia, above 100 µM.

For `N#C[S-].[Nd+3].c1ccc(-c2ccccn2)nc1.c1ccc(-c2ccccn2)nc1.c1ccc(-c2ccccn2)nc1`, the GI50 in the assay on EKVX NSCLC was 5.78 µM; with DMS 114 small cell lung it was 15.7 µM; with OVCAR-4 ovarian it was 49.8 µM; in the assay with M19-MEL melanoma, 9.78 µM; in the assay on UACC-257 melanoma it was 13.5 µM; in the assay with M14 melanoma, 2.26 µM. For the same compound, the GI50 in the assay with KM20L2 colon is 2.38 µM; in the assay on SR leukemia, 6.9 µM. For the same compound, the TGI in the assay with EKVX NSCLC was above 100 µM; with DMS 114 small cell lung, 67.1 µM; in the assay on OVCAR-4 ovarian, above 100 µM; with M19-MEL melanoma it was 54 µM; in the assay on UACC-257 melanoma it was 61.2 µM; with M14 melanoma, 5.96 µM. In addition, the TGI in the assay on KM20L2 colon is 6.08 µM; in the assay with SR leukemia, above 100 µM.

As to `O=[Se](=O)c1ccccc1.O=[Se](=O)c1ccccc1.[Cu]`, the GI50 with OVCAR-5 ovarian is 23 µM; in the assay with DMS 114 small cell lung, 6.77 µM; in the assay on OVCAR-4 ovarian it was 18.7 µM; with M19-MEL melanoma, 5.95 µM; in the assay with UACC-257 melanoma it was 16 µM; with A498 renal it was 20.1 µM. For the same compound, in the assay on KM20L2 colon, the GI50 is 18.3 µM. The concentration for total growth inhibition (TGI) with OVCAR-5 ovarian is 37.9 µM; in the assay on DMS 114 small cell lung, 14.9 µM; with OVCAR-4 ovarian, 34.5 µM; with M19-MEL melanoma it was 15.2 µM; in the assay with UACC-257 melanoma, 30.4 µM; with A498 renal it was 38 µM. Besides, in the assay with KM20L2 colon, the TGI is 35.1 µM.

`COc1cccc(/C=N/[N-]C(N)=O)c1[O-].[Ni+2].[OH3+].c1cnc2c(c1)ccc1cccnc12`: the TGI in the assay with OVCAR-5 ovarian, with OVCAR-4 ovarian, in the assay with UACC-257 melanoma, in the assay with A498 renal, with M14 melanoma and with KM20L2 colon was above 100 µM in each case. This compound also registered a TGI in the assay with SR leukemia above 100 µM.
